In a melting point compilation (Tetko et al.; mined from patent text by program, amines drawn as free bases though some values may be those of a salt) one finds melting point data, which are given here for 89 molecules.

Usually melting point stands for the temperature of the solid-liquid transition.

Turning to `CN(C1CCS(=O)(=O)C1)S(=O)(=O)c1ccc(Nc2nccc(Nc3ccc(F)cc3)n2)cc1` (centres undefined), the melting point is 236 to 240 °C.

Consider `N#Cc1cc(N)c(N)cc1C#N`, for which the melting point was 262 to 264 °C.

`CCCCCCc1ccc(C=Cc2cc3cc4ccccc4cc3s2)cc1` registered a melting point of 300 to 302 °C.

Regarding `O=C(CCC(=O)N1CCC(c2ccc(Cl)cc2)CC1)c1ccc2c(c1)CNC2`, the melting point was 133 to 134 °C. To `NS(=O)(=O)c1cccnc1OCC1CC1` belongs 121 to 122 °C.

Take `CCCCCCOC(=O)Oc1ccc2c(N3CCN(CCCC(=O)c4ccc(F)cc4)CC3)noc2c1`: the melting point was 77 to 80 °C.

For the molecule `CC(C)N1CCN(C(=O)OC2CCN(c3ccc(C(N)=O)cn3)CC2)CC1`, the melting point was in the range of 200 to 204 °C. The same measure for `CSc1sc(C(N)=O)c2c1-c1[nH]ncc1CC2`: 210 to 211 °C; for `COc1cc2c(cc1Nc1ncc(Cl)c(Nc3ccccc3S(=O)(=O)N(C)C)n1)CCNC(=O)C2`: 190 to 195 °C; for `O=c1c(CCCc2cccnn2)cc2cccnc2n1-c1cccc([N+](=O)[O-])c1`: 234 to 235 °C. `CC(CNC(=O)c1ccc(N2CCC(N3C(=O)C(F)(F)c4ccccc43)CC2)nn1)C1CC1` (centres undefined) gave a melting point of 51 to 53 °C. To `Cc1cccc(C)c1NC(=O)CCC1CCC(=O)N1` (centres undefined) belongs 206 to 208 °C; to `CC(C)(C)OC(=O)NC(Cc1c[nH]c2ccccc12)C(=O)CCc1cc(C(F)(F)F)cc(C(F)(F)F)c1` (centres undefined), 138 to 140 °C. To `C#Cc1ccc(I)c(Oc2cnc(N)nc2N)c1` belongs 156 to 159 °C; to `ClCCOc1ccc(C2=C(c3ccccc3)CCCc3cc(OC4CCCCO4)ccc32)cc1` (centres undefined), 153 to 155 °C; to `CCCC(=O)c1cnc2c(OC)cccc2c1Nc1ccccc1CO`, 159 to 161 °C.

As for `Oc1nsc(OC2CCCCC2)n1`, the melting point is 105 °C. `COC(=O)/C=C\c1cnn(C)c1-c1ccc(F)cc1` gave a melting point of 108 to 109 °C.

For the molecule `Cn1c(=O)[nH]c(=O)n(-c2ccc(F)cc2Cl)c1=O`, the melting point was in the range of 225 to 228 °C. The same measure for `Cc1ccnc2c1nc(CO)n2C`: > 300 °C; for `CC(C)C[C@H](NC(=O)OC(C)(C)C)C(=O)NCC(=O)OCCCNc1cccc2c1C(=O)c1ccccc1C2=O`: 86 °C; for `O=c1c2cc(O)ccc2oc2cccc(NCCN3CCCC3)c12`: 192 to 194 °C. Turning to `COc1ccc(N2CCN(CCC3OCCc4cc(C(=O)N(C)C)ccc43)CC2)cc1` (centres undefined), the melting point is 94 to 96 °C. To `Nc1ccc(NC(=O)Nn2cnc3ccccc3c2=O)cc1` belongs > 305 °C; to `COc1ccc(S(N)(=O)=O)cc1C(=O)NCC1CCCN1CC1=CCCCC1` (centres undefined), 167 °C. To `CCC#CCOc1ccc(C=O)cc1OC` belongs 47 to 50 °C; to `Cn1cc(C#N)nc1-c1ncc[nH]1`, 238 to 239 °C.

Turning to `COC(=O)C(C(C)=O)=C(N)C(F)(F)F`, the melting point is 63 to 65 °C. To `Fc1c(F)c(C(F)(F)F)c(F)c(F)c1Nc1nc(Cl)nc(Cl)c1Cl` belongs 152 to 153 °C; to `COc1ccc(Oc2cccc(NC(=O)c3ccn4c3CSC4c3cccnc3)c2)cc1` (centres undefined), 120 °C; to `CC(C)CC(=O)Nc1ccc2oc3c(c2c1)CCCC3`, 154 to 157 °C. For the molecule `Cc1ccc(-c2cncnc2Cl)cc1`, the melting point was in the range of 67 to 70 °C. To `CC(=O)SCC(Cc1ccccc1)C(=O)Nc1c(Cl)cccc1C(=O)O` (centres undefined) belongs 123 to 127 °C; to `Cn1ncc(C(=O)O)c1C(=O)Nc1ccc2nc(N3CCOCC3)nn2c1`, 294 °C; to `CN(Cc1ccncc1)c1ccc([N+](=O)[O-])c2c(C#N)cccc12`, 153 to 156 °C. The same measure for `CCC=C1Cc2c3c(c(C)c(C)c2C1=O)OC(C(=O)O)C3` (centres undefined): 229 °C. In the case of `COc1ccc(C=C(Br)Br)cc1O`, the melting point is 94 to 95 °C. The same measure for `O=C(O)c1cc2c(=O)n(C3CCCC3)c3ccccc3n2c1`: 215 to 216 °C; for `COC(=O)c1ccc(-c2nnc(-c3ccc(C(F)(F)F)cc3)o2)c([N+](=O)[O-])c1`: 173 to 174 °C; for `C=CCC(C(N)=O)C(CC(C)C)C(=O)NC1N=C(c2cccnc2)c2ccccc2N(C)C1=O` (centres undefined): 251 to 253 °C. To `CC(C)CC(=O)N[C@H]1CC[C@H](CCN2CCN(c3nccc4c3OCC4)CC2)CC1` belongs 187 °C; to `COC(=O)C1CNCCN1C(=O)/C=C/c1ccc(Sc2ccc3c(c2)OCCO3)c(C(F)(F)F)c1` (centres undefined), 70 to 72 °C. The same measure for `CCC(CC)c1nn(-c2ncc(C(F)(F)F)cn2)cc1CCCOc1c(C)cccc1CC(=O)O`: 110 to 111 °C.

For the molecule `CS(=O)(=O)Nc1ccc([N+](=O)[O-])cc1SC1CCCCC1`, the melting point is 140 °C. To `O=C(NCCc1ccccn1)N(c1ccccc1)c1ccccc1` belongs 109 °C.

In the case of `CN(C)Cc1nnc2n1-c1ccccc1C(c1ccccc1Cl)=NC2`, the melting point was in the range of 143 to 145 °C. To `CCOC1=C([N+](=O)[O-])CN(C(C)C)C1=O` belongs 47 °C; to `COc1ccccc1NC(=O)Nc1nc(Nc2ccccc2-c2ccccc2)nc(N(CCC(=O)O)Cc2ccc(C(F)(F)F)cc2)n1`, 125 to 128 °C. To `CC(=O)NC[C@@H]1C[C@H]1c1cccc2c1C[C@@H](CCCCc1ccccc1)O2` belongs 65 to 66 °C. For `CC(=O)Nc1ccc2[nH]c(C(=O)N3CC(CCl)c4c3cc(N)c3ccccc43)cc2c1` (centres undefined), the melting point is > 300 °C. In the case of `CSc1cc(C(C)(C)C)nn1C(=O)N(C)C`, the melting point was in the range of 56 to 58 °C. Take `COc1ccc2[nH]nc(N3CCNCC3)c2c1`: the melting point lay in the range of 163 to 169 °C. The same measure for `CC(=C(C#N)C(=O)c1ccccc1)N(C)C`: 105 to 106 °C; for `CCS(=O)(=O)Nc1cc(Cc2c[nH]cn2)ccc1C`: 140 to 152 °C; for `c1ccc2c(c1)-c1ccccc1C21c2cccnc2-c2ncccc21`: 208 to 210 °C. To `N#Cc1ccc(NCC(F)(F)F)cc1C(F)(F)F` belongs 132 to 134 °C; to `CC(C)C12COc3cc(Cl)ccc3C1=NN(C(=O)Nc1ccc(C(F)(F)F)cc1)C2` (centres undefined), 150 to 152 °C. Molecule `Cc1cc(C(=O)O)ccc1C(N)(CC1c2ccccc2Oc2ccccc21)C(=O)O` (centres undefined) gave a melting point of 215 to 216 °C. `CC(N=[N+]=[N-])C(=O)c1nc(C(C)(C)C)c(O)c(C(C)(C)C)n1` (centres undefined) gave a melting point of 91 to 92 °C.

Molecule `CC(C)(C)CCN1C(=O)C(NC(=O)Nc2ccccc2)C(=O)N(c2ccccc2F)c2ccccc21` (centres undefined) returned a melting point of 271 to 272 °C.

As to `Nc1nc(Cl)c2ncn(C3CC(F)C(CO)O3)c2n1` (centres undefined), the melting point turned out to be 172 °C. The same measure for `COc1ccc(-c2oc3ccc(F)cc3c(=O)c2OCCOc2cccc(C(C)=C3SC(=O)NC3=O)c2)cc1OC`: 228 to 230 °C; for `Cc1ccc(N2CCN(Cc3n[nH]c4ccccc34)CC2)cc1`: 176 to 177 °C.

Molecule `COc1nc(C)nc(NC(=O)NS(=O)(=O)c2ccccc2C=CCC#N)n1` had a melting point of 142 to 143 °C.

For `O=C(Nc1cc(-c2nnc(Cc3ccccc3)o2)ccn1)c1ccccc1`, the melting point is 187 to 189 °C. The same measure for `O=C(O)CC1CC(c2ccccc2)c2ccccc21` (centres undefined): 126 to 129 °C; for `COc1cc(N)c(Cl)cc1C(=O)N[C@H]1CCN(CCNc2nccnc2C)C[C@H]1OC` (relative stereo): 170 °C. The same measure for `CCCc1nc2c(N)nc3cc(OCCCN)ccc3c2n1CC(C)C`: 173 to 174 °C.

`C=Cc1ccc(OC)c(OC)c1[N+](=O)[O-]`: the melting point was in the range of 140 to 141 °C. To `Cc1nccn1-c1ccc([N+](=O)[O-])cc1` belongs 135 to 137 °C; to `Cc1cc(C(=O)N2Cc3ccc(C(=O)O)n3Cc3ccccc32)ccc1-c1ccccc1C(F)(F)F`, 127 to 130 °C. The same measure for `O=C1N(Cc2cc(F)ccn2)c2ccccc2C12COc1cc3c(cc12)OCCO3` (centres undefined): 228 to 231 °C. `CC(C)NCC(O)COc1cccc(Cl)c1Cl` (centres undefined): the melting point was 94 to 96 °C.

Consider `O=Cc1cc2n(c1)CCc1ccccc1C2=O`, for which the melting point was 135 to 136 °C. The same measure for `Cc1ccc(N(C)C2CCN(CC(=O)Nc3ccc(NS(C)(=O)=O)cc3)CC2)cc1`: 128 to 130 °C. To `O=C(O)COc1ccc(C(=O)NCC2CCN(c3ccncc3)CC2)cc1` belongs 84 to 86 °C. The same measure for `O=c1oc2c(c(O)c1C(c1cc(NS(=O)(=O)c3cccc4cccnc34)cc(NS(=O)(=O)c3cccc4cccnc34)c1)C1CC1)CCCCCC2` (centres undefined): 139 to 145 °C; for `Fc1ccc(Br)c2ccsc12`: 47 to 48 °C; for `Cc1c(-c2ccccc2)c(N2CC[C@H](N(C)C)C2)c2oc(C(=O)N(C)CCc3ccccc3)nc2c1C#N`: 138 to 141 °C. For the molecule `CN1CCN(c2cccc3c2C[C@H](NC(=O)c2cccc(Oc4ccccc4)c2)CC3)CC1`, the melting point was 136 to 137 °C. In turn, `Cc1cccc2ncc(C(=O)NC(C)(C)CC(C)(C)C)c(=O)n12` showed a melting point of 126 to 129 °C. The same measure for `CCN(C(=O)Nc1ccccc1CCc1cc(C(C)(C)C)c(O)c(C(C)(C)C)c1)C1CCN(Cc2ccccc2)CC1`: 149 to 151 °C; for `CNC(=O)c1ccc(-c2ccc3oc(C4CCN(C(=O)OC(C)C)CC4)nc3c2)cc1F`: 116 to 120 °C. To `O=C1c2ccc(C(F)(F)F)cc2C(=O)N1c1ccc2ccc(Cl)nc2n1` belongs 265 °C. The same measure for `CCOC(=O)c1cn(C2CC2)c2cc(NCCO)c(F)cc2c1=O`: 228 to 230 °C; for `COC(=O)c1ccc(OC)c(O)c1`: 62 to 63 °C; for `CCOC(=O)N1CCC(n2c(=O)[nH]c3ccc(C)cc32)CC1`: 222 to 224 °C. `CC1=CSC(O)C(=O)N1` (centres undefined): the melting point lay within 166 to 168 °C.

In turn, `CCCNCC(O)c1ccc(S(C)(=O)=O)cc1` (centres undefined) showed a melting point of 120 to 123 °C.
